Measurements taken from PubChem BioAssay AID2060502 (Molecular Pharmacology Branch, DTP, NCI, 2025).

Test system: 885724-159-R-J1-PDC complex spheroid viability
Test: Anticancer human tumor 885724-159-R-J1-PDC patient-derived pancreatic adenocarcinoma cell line growth inhibition [GQUAD]
Settings: for IC50: curve of first compound; for viability, T/C: stronger effect = lower value
Outline: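 Tumor cells were grown as complex spheroids with HUVEC endothelial cells and mesenchymal stem cells as stroma. G-quadruplex stabilizers were combined with targeted agents over half-log dilutions from near the clinical Cmax, or from 10 microM.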

[1] = second compound 0.0316 µM, first compound 0.0316 µM
[2] = second compound 0.0316 µM, first compound 0.1 µM
[3] = second compound 0.0316 µM, first compound 0.316 µM
[4] = second compound 0.0316 µM, first compound 1 µM
[5] = second compound 0.0316 µM, first compound 3.16 µM
[6] = second compound 0.0316 µM, first compound 10 µM
[7] = second compound 0.1 µM, first compound 0.0316 µM
[8] = second compound 0.1 µM, first compound 0.1 µM
[9] = second compound 0.1 µM, first compound 0.316 µM
[10] = second compound 0.1 µM, first compound 1 µM
[11] = second compound 0.1 µM, first compound 3.16 µM
[12] = second compound 0.1 µM, first compound 10 µM
[13] = second compound 0.316 µM, first compound 0.0316 µM
[14] = second compound 0.316 µM, first compound 0.1 µM
[15] = second compound 0.316 µM, first compound 0.316 µM
[16] = second compound 0.316 µM, first compound 1 µM
[17] = second compound 0.316 µM, first compound 3.16 µM
[18] = second compound 0.316 µM, first compound 10 µM
[19] = second compound 1 µM, first compound 0.0316 µM
[20] = second compound 1 µM, first compound 0.1 µM
[21] = second compound 1 µM, first compound 0.316 µM
[22] = second compound 1 µM, first compound 1 µM
[23] = second compound 1 µM, first compound 3.16 µM
[24] = second compound 1 µM, first compound 10 µM
[25] = second compound 3.16 µM, first compound 0.0316 µM
[26] = second compound 3.16 µM, first compound 0.1 µM
[27] = second compound 3.16 µM, first compound 0.316 µM
[28] = second compound 3.16 µM, first compound 1 µM
[29] = second compound 3.16 µM, first compound 3.16 µM
[30] = second compound 3.16 µM, first compound 10 µM
[31] = second compound 10 µM, first compound 0.0316 µM
[32] = second compound 10 µM, first compound 0.1 µM
[33] = second compound 10 µM, first compound 0.316 µM
[34] = second compound 10 µM, first compound 1 µM
[35] = second compound 10 µM, first compound 3.16 µM
[36] = second compound 10 µM, first compound 10 µM
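Further: spheroids exposed to agents for seven days before readout.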
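Wherever viability, T/C is given: percent of vehicle control viability where 100% = DMSO wells.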

`C=CC(=O)N1CCN(c2nc(=O)n(-c3c(C)ccnc3C(C)C)c3nc(-c4c(O)cccc4F)c(F)cc23)C(C)C1` (centres undefined) + Cc1cnc(CNC(=O)c2c(=O)c3ccc(N4CCCN(C)CC4)nc3n3c2sc2ccccc23)cn1 was tested, and the IC50 (second compound 0.0316 µM) was > 10 µM, the IC50 (second compound 0.1 µM) was > 10 µM and the IC50 (second compound 0.316 µM) was > 10 µM. The IC50 (second compound 1 µM) was > 10 µM, the IC50 (second compound 3.16 µM) was > 10 µM and the IC50 (second compound 10 µM) was > 10 µM. The viability, T/C [1] was 107%, the viability, T/C [2] was 114% and the viability, T/C [3] was 115%. For the same molecule, the viability, T/C [4] was 107%, the viability, T/C [5] was 100% and the viability, T/C [6] was 91.5%. The viability, T/C [7] was 101%, the viability, T/C [8] was 102% and the viability, T/C [9] was 107%. For the same molecule, the viability, T/C [10] was 124%, the viability, T/C [11] was 125% and the viability, T/C [12] was 111%. For the same molecule, the viability, T/C [13] was 103%, the viability, T/C [14] was 106% and the viability, T/C [15] was 110%. It also gave a viability, T/C [16] of 89.2%, a viability, T/C [17] of 124% and a viability, T/C [18] of 96%. It also gave a viability, T/C [19] of 86.5%, a viability, T/C [20] of 91% and a viability, T/C [21] of 88.2%. For the same molecule, the viability, T/C [22] was 91.6%, the viability, T/C [23] was 100% and the viability, T/C [24] was 81%. For the same molecule, the viability, T/C [25] was 74.5%, the viability, T/C [26] was 84% and the viability, T/C [27] was 89.3%. The viability, T/C [28] was 81.4%, the viability, T/C [29] was 89.4% and the viability, T/C [30] was 76.8%. The viability, T/C [31] was 74.4%, the viability, T/C [32] was 74% and the viability, T/C [33] was 74.7%. For the same molecule, the viability, T/C [34] was 83.4%, the viability, T/C [35] was 78% and the viability, T/C [36] was 68.5%.

In the case of `CC(C)n1c(=O)n(C)c2cnc3cc(F)c(-c4ccc(OCCCN5CCCCC5)nc4)cc3c21` + Cc1cnc(CNC(=O)c2c(=O)c3ccc(N4CCCN(C)CC4)nc3n3c2sc2ccccc23)cn1, the IC50 (second compound 0.0316 µM) is reported as > 10 µM, the IC50 (second compound 0.1 µM) is reported as > 10 µM and the IC50 (second compound 0.316 µM) is reported as > 10 µM. The IC50 (second compound 1 µM) was > 10 µM, the IC50 (second compound 3.16 µM) was 6.48 µM and the IC50 (second compound 10 µM) was 5.27 µM. It also gave a viability, T/C [1] of 91.3%, a viability, T/C [2] of 94.1% and a viability, T/C [3] of 95.3%. It also gave a viability, T/C [4] of 114%, a viability, T/C [5] of 77.6% and a viability, T/C [6] of 65.7%. For the same molecule, the viability, T/C [7] was 108%, the viability, T/C [8] was 107% and the viability, T/C [9] was 96.1%. It also gave a viability, T/C [10] of 106%, a viability, T/C [11] of 93.6% and a viability, T/C [12] of 67.2%. It also gave a viability, T/C [13] of 92.6%, a viability, T/C [14] of 93% and a viability, T/C [15] of 88.5%. The viability, T/C [16] was 108%, the viability, T/C [17] was 81.2% and the viability, T/C [18] was 64.2%. The viability, T/C [19] was 82.5%, the viability, T/C [20] was 87.1% and the viability, T/C [21] was 90.5%. It also gave a viability, T/C [22] of 94.6%, a viability, T/C [23] of 78.5% and a viability, T/C [24] of 53.1%. It also gave a viability, T/C [25] of 73.2%, a viability, T/C [26] of 73.4% and a viability, T/C [27] of 78.8%. The viability, T/C [28] was 68.3%, the viability, T/C [29] was 67.8% and the viability, T/C [30] was 39.9%. For the same molecule, the viability, T/C [31] was 76.1%, the viability, T/C [32] was 71.1% and the viability, T/C [33] was 73.8%. It also gave a viability, T/C [34] of 70.8%, a viability, T/C [35] of 61.7% and a viability, T/C [36] of 35.3%.
